What was measured:
[1] = tested on: clinical isolates of methicillin-resistant S. aureus; assay: MIC against clinical isolates from cystic fibrosis patients; type: cell-based; conditions: n=20 methicillin-resistant clinical isolates; CAMHB
[2] = tested on: clinical isolates of P. aeruginosa; assay: as above; type: cell-based; conditions: n=20 clinical isolates, CAMHB
[3] = tested on: P. aeruginosa (Schroeter) Migula (ATCC 27853); assay: P. aeruginosa-induced bacterial peritonitis model; type: in vivo, Balb/c mice; conditions: 15 mg/kg i.p. single dose, n=10, 7 days, p <0.001
Balb/c mice = assay: toxicity profile in mice, intraperitoneal; type: in vivo, mouse; conditions: Balb/c mice n=3, i.p.; very mild toxicity after 1 h, recovered after 24 h

CN[C@H](CC(C)C)C(=O)N[C@H]1C(=O)N[C@@H](CC(N)=O)C(=O)N[C@H]2C(=O)N[C@H]3C(=O)N[C@H](C(=O)N[C@H](C(=O)O)c4cc(O)cc(O)c4-c4cc3ccc4O)[C@H](O)c3ccc(c(Cl)c3)Oc3cc2cc(c3O[C@@H]2O[C@H](CO)[C@@H](O)[C@H](O)[C@H]2O[C@H]2C[C@](C)(N)[C@H](O)[C@H](C)O2)Oc2ccc(cc2Cl)[C@H]1O [Vancomycin]
S. aureus MICrange [1]: 0.5 to 1.4 µM

Colistin
P. aeruginosa MIC50 ([2]; 30% MDR): ≤ 0.2 µM
P. aeruginosa MIC90 [2]: 0.4 µM
survival hazard ratio [HR] [3]: 0.040
well tolerated intraperitoneal dose (MTD) (Balb/c mice): 15 mg/kg

Reference: article PMC8410672 (Chemistry (Weinheim an der Bergstrasse, Germany), 2021)
